# Laboratory results reported in US20100297256A1, “METHODS AND COMPOSITIONS FOR INHIBITING INTEGRINS USING TELLURIUM-CONTAINING COMPOUNDS” (priority 2007, published 2010).
# How the values were obtained:
# [1] = test system: SVEC4-10 endothelial cells; assay: Tube formation assay, SVEC4-10; type: cell-based, murine; settings: SVEC4-10 on Matrigel, 3 hours
# Experimental: Plates (48 wells) were coated with 150 μl of Matrigel and incubated at 37° C. for 1 hour to promote gelling. Svec4-10 or HUVEC cells (40,000 cells) in 0.5 ml of serum-free DMEM with varying concentration of AS101 or SAS were added to each well. For positive control, ECGS was added at a concentration of 50 μg/ml. All samples were performed in sextuplicate. After 3 hours incubation, the plates were fixed with methanol and stained with crystal violet. Randomly chosen fields were photographed and density of tube formation was analyzed by imageJ.
# [2] = test system: aortic arches; assay: Chick aortic arch assay; type: cell-based; settings: for vessel length and number, sprouting induced by ECGS / length of tubes exiting from arches / number of tubes exiting from arches: 0.5-5 μg/ml; for vessel length and number, sprouting induced by ECGS: 100 μg/ml ECGS; for length of tubes exiting from arches / number of tubes exiting from arches: without ECGS; for toxicity in aortic arch assay (re-sprouting after washing): data not shown
# Experimental: Aortic arches were removed from fertilized chicken eggs at day 13 of embryonic development. The eggs were cracked into a sterile 100 mm culture dish. The embryo was removed from its surroundings by cutting away the associated membranes and yolk sac. The chicken embryo was placed ventral side up to surgically expose the heart and aortic arches. The heart and aortic arch were removed and placed into a sterile culture dish containing PBS to which 1% penicillin-streptomycin was added. Arches, from which the surrounding adventitia had been removed, were cut into 0.8 mm sections. Each arch was placed onto drop of Matrigel that was deposited on the bottom of a 48-well culture plate just prior to adding the ring. An additional drop of ice-cold Matrigel was spread on each aortic arch. Matrigel was allowed to solidify before adding 500 μl of human endothelial-SFM basal growth medium. […] Quantitative evaluation of tubule formation was performed by a blinded observer on a scale of 1-3 (least to maximum sprouting).
# [3] = test system: SVEC4-10 cells; assay: Boyden chamber migration assay; type: cell-based, murine; settings: 6 hours
# Experimental: Migration assay was performed in a 48-well microchemotaxis chamber. Polyester membranes with 8 μm pores were coated with 0.1 mg/ml of collagen I in DMEM and then dried for 1 hour. B16F10 and Svec4-10 cells were harvested using TE and resuspended in DMEM containing 0.1% BSA. The bottom chamber was loaded with Svec4-10 supernatant/DMEM (1:5) containing varying concentration of AS101 or SAS and the filter was laid over the treatment solutions. Non-diluted Svec4-10 supernatant was used as a positive control. The upper wells were then loaded with 30,000 cells, the chamber was incubated at 37° C. for 6 hours and the filters were fixed and stained using Diff-Quick. The cells that migrated through the filter were quantified by counting the center of each well in a 36-box grid at ×20 using an Olympic CK2 microscope. Each condition was studied in triplicate wells, and each experiment was performed three times.
# [4] = test system: SVEC4-10 cells; assay: "Scratch" wound closure assay; type: cell-based, murine; settings: 1 μg/ml, ECGS 100 μg/ml, cells counted at 12 hours
# Experimental: Confluent Svec4-10 monolayers in 6 mm plates were “scratch” wounded using the tip of a universal blue pipette tip and rinsed with PBS. AS101 or SAS (1 μg/ml final concentration) or ECGS (100 μg/ml) were added to the plates containing serum-free DMEM. The plates were incubated at 37° C. and fixed and stained at several time points. Migrated cells at 12 hours were counted along the scratch. The centers of plates at all times were photographed for presented data. The experiment was repeated three times.
# [5] = test system: SVEC4-10 cells; assay: Cell attachment assay, SVEC4-10; type: cell-based, murine
# Experimental: (§1) The cell attachment assays were performed in sextuplicate in 96-well plates. The 1 μg of C16 or AG73 peptide in 60 μl double-distilled water was added to each well, and this volume was allowed to air dry overnight in a biosafety hood at room temperature (or fibronectin 20 ng/80 μl for 1 hour at 37° C.). Thereafter, nonspecific binding sites of the tissue culture plastic were blocked by adding 200 μl of 1% bovine serum albumin (BSA) in PBS for 1 hour at 37° C. LAN-1, B16F10 and SVEC4-10 cells were harvested by agitation, washed three times in serum-free DMEM and resuspended in 1% BSA-DMEM. After 20 minutes incubation in 1% BSA in a tube, cells were washed and resuspended in 0.1% BSA. The cells were counted using a hemocytometer and brought to a final cell count of 1×10^6/ml in the 0.1% BSA medium. Cells were divided into tubes and each tube was treated with one of the following in DMEM: ECGS (endothelial cell growth supplement) (50 μg/ml), AS101 (1-5 μg/ml), SAS (1-5 μg/ml), ECGS (50 μg/ml)+SAS (1-5 μg/ml), ECGS (50 μg/ml)+AS101 (1-5 μg/ml), 10% serum, 10% serum+AS101 (1-5 μg/ml) or 10% serum+SAS (1-5 μg/ml).
# (§2) Next, 150 μl of the treated cell suspension was added to each well (20,000 cells/well), which had been coated with peptides, and incubated for 50 minutes at 37° C. After 50 minutes, the unattached cells were removed by aspiration and the remaining attached cells were fixed and stained by crystal violet. 100 μl aliquot of 10% SDS was thereafter added to each well for cell lysis and dye release and absorption was read with a TECAN spectrophotometer at 570 nm.
# Attached cells were washed with PBS without Ca^+2/Mg^+2. 100 μl of 0.2% crystal violet in 20% methanol was thereafter added and the cells were incubated for 10 minutes at room temperature. At the end of incubation time, cells were washed twice with double-distilled water and 100 μl of 10% SDS was added. Dye bound to the cell is released by SDS and the absorption by the dye is measured by colorimetry at 570 nm. The amount of stained cells is then considered to be proportional to the measured absorption by the dye
# [6] = test system: BV-2 cells; assay: Cell attachment assay, BV-2; type: cell-based, murine
# [7] = test system: B16F10 cells; assay: Cell attachment assay, B16F10; type: cell-based, murine; settings: B16F10, data not shown, compared with SVEC4-10
# Experimental: as §1, with “Cells were divided into tubes and each tube was treated with one of the following in DMEM: ECGS (endothelial cell growth supplement) (50 μg/ml), AS101 (1-5 μg/ml), SAS (1-5 μg/ml), ECGS (50 μg/ml)+SAS (1-5 μg/ml), ECGS (50 μg/ml)+AS101 (1-5 μg/ml), 10% serum, 10% serum+AS101 (1-5 μg/ml) or 10% serum+SAS (1-5 μg/ml).” left out
# as §2, with “After 50 minutes, the unattached cells were removed by aspiration and the remaining attached cells were fixed and stained by crystal violet.” left out
# Attached cells were washed with PBS without Ca^+2/Mg^+2. […] Dye bound to the cell is released by SDS and the absorption by the dye is measured by colorimetry at 570 nm. The amount of stained cells is then considered to be proportional to the measured absorption by the dye
# [8] = test system: integrin α subunits; assay: Multiple anti-integrin antibody binding assay, α subunits; type: cell-based; settings: SVEC cells
# Experimental: The specificity of tellurium-containing compounds to integrins was tested by examining the effect of AS101 and SAS on the attachment of SVEC cells to specific anti-integrin antibodies. Commercially available kits (R&D Biosystems) with anti-integrin coated wells were used, and attachment was determined according to the manufacturer's instructions.
Structure (SMILES),number of tubes formed [1],"vessel length and number, sprouting induced by ECGS [2]",length of tubes exiting from arches [2],number of tubes exiting from arches [2],toxicity in aortic arch assay (re-sprouting after washing) [2],directional migration of murine endothelial cells through the membrane [3],ECGS-induced scratch wound repair by cell migration [4],cell attachment to AG73 peptide [5],cell attachment to C16 peptide [5],cell attachment to fibronectin [5],cell attachment to fibronectin [6],cell attachment to C16 and AG73 peptides [7],cell attachment to antibodies against integrin α subunits [8]
"Cl[TeH]1(Cl)(Cl)OCCO1 [AS101, ammonium trichloro(dioxyethylene-O,O′)tellurate]",reduced the number of tubes formed,inhibit the vessel length and number,reduced their length,did not inhibit the number of tubes exiting from arches,non-toxic,inhibited the directional migration,reduce ECGS-induced scratch wound repair,slightly decrease,slightly decrease,inhibited cell attachment to fibronectin,inhibited cell attachment to fibronectin,similar,little if any inhibition
"O=C1O[Te]23OC(=O)C(O2)C2O[Te]4(OC(=O)C(O4)C1O3)OC2=O [SAS, [TeO4(COCH)2]2]",reduced the number of tubes formed,inhibit the vessel length and number,reduced their length,did not inhibit the number of tubes exiting from arches,non-toxic,inhibited the directional migration,reduce ECGS-induced scratch wound repair,slightly decrease,slightly decrease,inhibited cell attachment to fibronectin,inhibited cell attachment to fibronectin,similar,little if any inhibition
